Measurements: PMC12122562, “Phase 1 studies of the indenoisoquinolines LMP776 and LMP744 in patients with solid tumors and lymphomas” (Cancer Chemotherapy and Pharmacology, 2025)

Target: T1, TOP1cc (Homo sapiens, UniProt P11387)
T1 construct: paired pre-treatment and on-treatment tumor biopsies (C1D2, 2–4 h after dosing) from 6 patients receiving LMP744 at the MTD; from tissue; host or cells: core needle tumor biopsies from patients (LMP744 expansion cohort)
T1 sequence (P11387 2-765 limits assumed): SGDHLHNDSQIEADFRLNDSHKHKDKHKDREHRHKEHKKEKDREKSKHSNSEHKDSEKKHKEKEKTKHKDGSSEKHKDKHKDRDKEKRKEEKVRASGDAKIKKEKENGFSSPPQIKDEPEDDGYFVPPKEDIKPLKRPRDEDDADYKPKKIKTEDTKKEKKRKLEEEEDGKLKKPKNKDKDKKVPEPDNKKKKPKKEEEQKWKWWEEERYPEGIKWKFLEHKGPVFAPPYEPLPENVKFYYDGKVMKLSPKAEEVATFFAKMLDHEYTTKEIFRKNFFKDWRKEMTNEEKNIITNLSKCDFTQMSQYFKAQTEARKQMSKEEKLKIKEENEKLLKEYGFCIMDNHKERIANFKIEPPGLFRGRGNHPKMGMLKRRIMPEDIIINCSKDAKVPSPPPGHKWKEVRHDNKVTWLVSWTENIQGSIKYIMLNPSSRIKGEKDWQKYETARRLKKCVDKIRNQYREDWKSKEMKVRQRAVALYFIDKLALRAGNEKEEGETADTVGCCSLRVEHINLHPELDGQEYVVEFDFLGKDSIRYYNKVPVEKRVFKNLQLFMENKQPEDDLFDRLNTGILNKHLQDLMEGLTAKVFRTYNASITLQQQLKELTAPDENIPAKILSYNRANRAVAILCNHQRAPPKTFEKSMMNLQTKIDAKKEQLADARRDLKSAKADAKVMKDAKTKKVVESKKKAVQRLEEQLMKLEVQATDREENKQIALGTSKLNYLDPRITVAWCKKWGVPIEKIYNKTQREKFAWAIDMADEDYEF
Assay: qIF of paired tumor biopsies: TOP1cc foci
Format: in vivo
Conditions: for TOP1cc: C1D2
Description: The LMP744 protocol collected pre-treatment (baseline) and on-treatment paired biopsies from patients in the expansion cohort. Core needle tumor biopsies (18-gauge) were collected and flash-frozen at point of collection per NCI SOPs (https://dctd.cancer.gov/ResearchResources/biomarkers/docs/par/SOP340507_Biopsy_Frozen.pdf) as described to preserve labile post-translational modifications such as phosphorylation. Biopsy pairs were thawed in formalin, fixed in paraffin embedded together with control tissues following NCI SOP340550 (https://dctd.cancer.gov/ResearchResources/biomarkers/DDR3/SOP340550_Biopsy_Section_Testis_Jejunum_Controls.pdf). TOP1 and TOP1cc were measured with a cocktail containing custom-conjugated rabbit monoclonal antibody anti-TOP1-DIG (Abcam, EPR5376 (2)) and mouse monoclonal antibody anti-TOP1cc (clone 1.1A [34, 35], EMD Millipore) that were detected with reporter secondary antibodies AlexaFluor-647 IgG fraction monoclonal mouse anti-digoxin (Jackson ImmunoResearch) and goat/anti-mouse AlexaFluor-488, respectively. Phosphorylated KAP1 (pKAP1, phosphorylated at S824) was measured using custom-conjugated pKAP1-pS824-DNP (Abcam, EPR5248) and detected with AlexaFluor-488 conjugated with anti-dinitrophenyl-KLH rabbit IgG Antibody Fraction (DNP-488, ThermoFisher). […] TOP1, γH2AX, pNBS1, and pKAP1 were measured as the percentage of DAPI-stained tumor cell nuclear area that was positive for the biomarker (% NAP); RAD51 [19] and TOP1cc was measured as a function of the percentage of nuclei with ≥ 5 foci (RAD51) or ≥ 19 foci (TOP1cc). Apoptosis was measured using a validated IFA of tumor cells positive for both cCasp3 blebbing in the cytoplasm and γH2AX in the nucleus. Anti-SLFN11 rabbit monoclonal antibody (Cell Signaling Technology, clone D8W1B) was detected by immunohistochemistry (IHC) using Bond Polymer Detection kit (Leica) and scanned in 20X widefield Aperio (Leica), and the distribution of staining intensity of tumor cell nuclei graded as 0, 1 + , 2 + or 3 + was converted into an H-score. […]

SMILES: COc1cc2c3c(n(CCCNCCO)c(=O)c2cc1OC)-c1cc2c(cc1C3=O)OCO2 [LMP744]
- TOP1cc, change in the biopsy cohort (6 patients at MTD, P = 0.1373): no significant changes
- TOP1cc (patient 29, MTD): neither biomarker changed with treatment
- TOP1cc (patient 31, MTD): decreased nearly to background levels
